The target in one experiment is T1, mu opioid receptor (MOR) (Homo sapiens, UniProt P35372).
T1 construct: host or cells: U2OS (Discover X OPRMu1-U2OS, PathHunter)
Put plainly: OPRMu1 Discover X β-arrestin Assay, antagonist mode (U2OS cells, DAMGO EC80 challenge). It counts as cell-based. The essentials:
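PathHunter U2OS cells with β-gal fragment-complementation readout for β-arrestin recruitment to OPRMu1. Cells were preincubated with compound (10-point, 1:3 series from nominal 10 micromolar) for 30 min at 37 °C, then challenged with 303 nM DAMGO (EC80) for 3 h. Luminescence gave percent inhibition.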

Experiment [1] concerns the target T2, kappa opioid receptor (KOR) (Homo sapiens, UniProt P41145).
T2 construct: host or cells: U2OS (Tango OPRK1-bla U2OS)
Put plainly: OPRKappa 1 Tango B-Arrestin Assay, antagonist mode (Tango OPRK1-bla U2OS cells, U50488 EC80 challenge). It is filed as cell-based. Conditions: for Selectivity (MOR/KOR): Kappa selectivity, MOR IC50 / KOR IC50; for IC50: antagonist mode, Tango OPRK1-bla U2OS cells, 6 nM U50488 challenge. The essentials: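 Tango OPRK1-bla U2OS cells, β-arrestin recruitment read as β-lactamase FRET (CCF4-AM, 460/590 nm emission). Compounds, 10-point 1:3 series from nominal 10 µM in quadruplicate, preincubated 30 min at 37 °C, then challenged with U50488 at 6 nM final (EC80) for 4 h; percent inhibition from median ratio.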

A value given as a limit tells only on which side of the number the result lay.

T2 sequence (P41145 whole entry): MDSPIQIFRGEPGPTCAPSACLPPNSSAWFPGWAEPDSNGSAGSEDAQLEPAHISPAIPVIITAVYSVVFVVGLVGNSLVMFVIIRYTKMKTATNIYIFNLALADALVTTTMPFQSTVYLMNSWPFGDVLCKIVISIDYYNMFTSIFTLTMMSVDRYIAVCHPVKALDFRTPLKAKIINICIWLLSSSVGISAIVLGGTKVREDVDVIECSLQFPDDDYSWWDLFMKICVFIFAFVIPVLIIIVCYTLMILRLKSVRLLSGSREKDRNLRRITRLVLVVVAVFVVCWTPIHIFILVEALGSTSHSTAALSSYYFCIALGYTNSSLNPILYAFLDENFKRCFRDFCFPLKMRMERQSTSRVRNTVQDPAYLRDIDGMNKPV
T1 sequence (P35372 whole entry): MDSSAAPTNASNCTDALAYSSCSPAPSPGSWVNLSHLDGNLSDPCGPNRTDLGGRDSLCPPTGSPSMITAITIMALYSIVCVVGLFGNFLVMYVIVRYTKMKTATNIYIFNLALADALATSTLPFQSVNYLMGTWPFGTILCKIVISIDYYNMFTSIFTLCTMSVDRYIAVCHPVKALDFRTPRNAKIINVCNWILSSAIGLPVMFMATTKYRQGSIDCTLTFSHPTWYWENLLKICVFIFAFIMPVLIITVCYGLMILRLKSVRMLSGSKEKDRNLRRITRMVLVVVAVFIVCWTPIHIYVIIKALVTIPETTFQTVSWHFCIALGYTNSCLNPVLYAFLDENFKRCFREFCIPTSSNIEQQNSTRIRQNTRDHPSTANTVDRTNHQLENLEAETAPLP

Compound `CCc1cc(F)c2nc(N3CC[C@H]4[C@H](CCN4[C@@H]4CCOC4)C3)c(-c3ccn(C)n3)c(C)c2c1` [Compound 125] had an IC50 at mu opioid receptor (MOR) of over 1 µM. Also, in experiment [1], the “Selectivity (MOR/KOR)” value is given as “++++ (more than 1000-fold selectivity over MOR)” and the IC50 lay within 0.001 to 0.01 µM.
In the case of `CCc1cc(F)c2nc(N3CC[C@H]4[C@H](CCN4[C@@H]4CCCOC4)C3)c(-c3ccn(C)n3)c(C)c2c1` [Compound 126], the half-maximal inhibitory concentration (IC50) on mu opioid receptor (MOR) is over 1 µM. In experiment [1], the “Selectivity (MOR/KOR)” value was “++ (between 10- and 100-fold selectivity)”; the IC50 is 0.01 to 0.1 µM.
`CCc1cc(F)c2nc(N3CC[C@@H]4[C@@H](CCN4C[C@@H]4CCCOC4)C3)c(-c3ccn(C)n3)c(C)c2c1` [Compound 128]: the IC50 is over 1 µM at mu opioid receptor (MOR) and at least 0.1 µM in experiment [1]. Besides, in experiment [1], the “Selectivity (MOR/KOR)” value was “++ (between 10- and 100-fold selectivity)”.
As for `CCc1cc(F)c2nc(N3CC[C@H]4[C@H](CCN4C[C@@H]4CCCOC4)C3)c(-c3ccn(C)n3)c(C)c2c1` [Compound 130], the IC50 against mu opioid receptor (MOR) was over 1 µM. In experiment [1], the “Selectivity (MOR/KOR)” value is “++ (between 10- and 100-fold selectivity)”; the IC50 was 0.01 to 0.1 µM.
Regarding `CCc1cc(F)c2nc(N3CC[C@@H]4[C@@H](CCN4C[C@@H]4CCCOC4)C3)c(-c3ccn(C)n3)c(C)c2c1` [Compound 133], the IC50 at mu opioid receptor (MOR) is over 1 µM. Also, in experiment [1], the “Selectivity (MOR/KOR)” value was “+++ (between 100- to 1000-fold selective)” and the half-maximal inhibitory concentration (IC50) fell in the range of 0.01 to 0.1 µM.
In the case of `CCc1cc(F)c2nc(N3CC[C@@H](N[C@@H]4CCOC4)C[C@H]3C)c(-c3cc(C)no3)c(C)c2c1` [Compound 137], the IC50 on mu opioid receptor (MOR) fell in the range of 0.1 to 1 µM. In addition, in experiment [1], the “Selectivity (MOR/KOR)” value is recorded as “++++ (more than 1000-fold selectivity over MOR)” and the IC50 is under 0.001 µM.
In the same order, the values of `CCc1cc(F)c2nc(N3CC[C@@H](N[C@@H]4CCOC4)C[C@@H]3C)c(-c3cc(C)no3)c(C)c2c1` [Compound 138] are over 1 µM, “+++ (between 100- to 1000-fold selective)” and 0.01 to 0.1 µM.
For `CCc1cc(F)c2nc(N3CC[C@H](N[C@@H]4CCOC4)C[C@H]3C)c(-c3cc(C)no3)c(C)c2c1` [Compound 140] the same measures were 0.1 to 1 µM, “+++ (between 100- to 1000-fold selective)” and under 0.001 µM.
In the same order, the values of `CCc1cc(F)c2nc(N3CC[C@H](N[C@@H]4CCCOC4)C[C@H]3C)c(-c3cc(C)no3)c(C)c2c1` [Compound 142] are 0.01 to 0.1 µM, “+++ (between 100- to 1000-fold selective)” and under 0.001 µM.
In turn, `CCc1cc(F)c2nc(N3CC[C@@H](N[C@@H]4CCCOC4)C[C@@H]3C)c(-c3cc(C)no3)c(C)c2c1` [Compound 143] gave an IC50 on mu opioid receptor (MOR) of over 1 µM. In experiment [1], the “Selectivity (MOR/KOR)” value was “++++ (more than 1000-fold selectivity over MOR)” and the IC50 lay within 0.01 to 0.1 µM.
In the same order, the values of `CCc1cc(F)c2nc(N3CC[C@@H](N[C@@H]4CCCOC4)C[C@H]3C)c(-c3cc(C)no3)c(C)c2c1` [Compound 144] are 0.1 to 1 µM, “+++ (between 100- to 1000-fold selective)” and under 0.001 µM.
For `CCc1cc(F)c2nc(N3CCN(C(=O)CN4CC[C@@H](O)C4)C[C@H]3C)c(-c3nc(C)no3)c(C)c2c1` [Compound 145] the same measures were over 1 µM, “++++ (more than 1000-fold selectivity over MOR)” and 0.001 to 0.01 µM.
In the same order, the values of `CCc1cc(F)c2nc(N3CCN(C(=O)[C@@H](C)N4CC[C@@H](O)C4)C[C@H]3C)c(-c3nc(C)no3)c(C)c2c1` [Compound 146] are over 1 µM, “+++ (between 100- to 1000-fold selective)” and 0.01 to 0.1 µM.
In the case of `CCc1cc(F)c2nc(N3CCN(C(=O)[C@@H](C)N4CC[C@@H](F)C4)C[C@H]3C)c(-c3nc(C)no3)c(C)c2c1` [Compound 147], the IC50 against mu opioid receptor (MOR) fell in the range of 0.1 to 1 µM. In experiment [1], the “Selectivity (MOR/KOR)” value is “+++ (between 100- to 1000-fold selective)” and the IC50 was 0.001 to 0.01 µM.
On mu opioid receptor (MOR), `CCc1cc(F)c2nc(N3CCN(C(=O)[C@@H](C(C)C)N4CCCC4)C[C@H]3C)c(-c3nc(C)no3)c(C)c2c1` [Compound 148] yielded an IC50 of over 1 µM. Further, in experiment [1], the “Selectivity (MOR/KOR)” value was “+++ (between 100- to 1000-fold selective)” and the IC50 lay in the range of 0.001 to 0.01 µM.
In the same order, the values of `CCc1cc(F)c2nc(N3CCN(C(=O)CN4CC[C@@H](F)C4)C[C@H]3C)c(-c3nc(C)no3)c(C)c2c1` [Compound 149] are 0.1 to 1 µM, “+++ (between 100- to 1000-fold selective)” and 0.001 to 0.01 µM.
In the same order, the values of `CCc1cc(F)c2nc(N3CCN(C(=O)[C@H](C)N4CC[C@@H](O)C4)C[C@H]3C)c(-c3nc(C)no3)c(C)c2c1` [Compound 150] are over 1 µM, “+++ (between 100- to 1000-fold selective)” and at least 0.1 µM.
In the same order, the values of `CCc1cc(F)c2nc(N3CCN(C(=O)[C@H](C(C)C)N4CCCC4)C[C@H]3C)c(-c3nc(C)no3)c(C)c2c1` [Compound 152] are over 1 µM, “+++ (between 100- to 1000-fold selective)” and 0.001 to 0.01 µM.
Consider `CCc1cc(F)c2nc(N3CCN(C(=O)C(C)(C)N4CCCC4)C[C@H]3C)c(-c3nc(C)no3)c(C)c2c1` [Compound 153], for which the results for the IC50 (against mu opioid receptor (MOR); in experiment [1]) were over 1 µM and 0.001 to 0.01 µM, respectively. For the same compound, the “Selectivity (MOR/KOR)” value in experiment [1] was “+++ (between 100- to 1000-fold selective)”.
Regarding `CCc1cc(F)c2nc(N3CCN(C(=O)[C@@H](C)N(CC)CC)C[C@H]3C)c(-c3nc(C)no3)c(C)c2c1` [Compound 155], the IC50 on mu opioid receptor (MOR) is over 1 µM. In addition, in experiment [1], the “Selectivity (MOR/KOR)” value is reported as “+++ (between 100- to 1000-fold selective)” and the IC50 was 0.001 to 0.01 µM.
`CCc1cc(F)c2nc(N3CCN(C(=O)CN4CCC(F)(F)CC4)C[C@H]3C)c(-c3nc(C)no3)c(C)c2c1` [Compound 156]: the figures for the IC50 (against mu opioid receptor (MOR); in experiment [1]) were 0.1 to 1 µM and 0.001 to 0.01 µM, respectively. Besides, the “Selectivity (MOR/KOR)” value in experiment [1] was “++ (between 10- and 100-fold selectivity)”.
`CCc1cc(F)c2nc(N3CCN(C(=O)[C@H](C)N(CC)CC)C[C@H]3C)c(-c3nc(C)no3)c(C)c2c1` [Compound 158] gave an IC50 against mu opioid receptor (MOR) of over 1 µM. For the same compound, in experiment [1], the “Selectivity (MOR/KOR)” value is on record as “++++ (more than 1000-fold selectivity over MOR)” and the IC50 fell in the range of 0.001 to 0.01 µM.
For `CCc1cc(F)c2nc(N3CCN(C(=O)[C@@H]4C[C@@H](O)CN4C)C[C@H]3C)c(-c3nc(C)no3)c(C)c2c1` [Compound 160] the same measures were over 1 µM, “+++ (between 100- to 1000-fold selective)” and 0.01 to 0.1 µM.
In the same order, the values of `CCc1cc(F)c2nc(N3[C@H](C)CN(C(=O)CN4CCCC4)C[C@H]3C)c(-c3nc(C)no3)c(C)c2c1` [Compound 161] are 0.1 to 1 µM, “+++ (between 100- to 1000-fold selective)” and under 0.001 µM.
In the case of `CCc1cc(F)c2nc(N3CCN(C(=O)[C@H](CO)N(C)C)C[C@H]3C)c(-c3nc(C)no3)c(C)c2c1` [Compound 162], the IC50 on mu opioid receptor (MOR) was over 1 µM; in experiment [1], 0.001 to 0.01 µM. In experiment [1], the “Selectivity (MOR/KOR)” value is reported as “+++ (between 100- to 1000-fold selective)”.
In the same order, the values of `CCc1cc(F)c2nc(N3CCN(C(=O)[C@H](C)N(CC)CC)C[C@H]3C)c(-c3cc(C)no3)c(C)c2c1` [Compound 164] are over 1 µM, 0.01 to 0.1 µM and “+++ (between 100- to 1000-fold selective)”.
For `CCc1cc(F)c2nc(N3CCN(C(=O)[C@@H]4CCCN4C)C[C@H]3C)c(-c3cc(C)no3)c(C)c2c1` [Compound 165] the same measures were over 1 µM, 0.01 to 0.1 µM and “+++ (between 100- to 1000-fold selective)”.
In the same order, the values of `CCc1cc(F)c2nc(N3CCN(C(=O)CN(CC)CC)C[C@H]3C)c(-c3cc(C)no3)c(C)c2c1` [Compound 166] are over 1 µM, 0.001 to 0.01 µM and “+++ (between 100- to 1000-fold selective)”.
On to `CCc1cc(F)c2nc(N3CCN(C(=O)[C@@H]4C[C@@H](O)CN4C)C[C@H]3C)c(-c3cc(C)no3)c(C)c2c1` [Compound 167], for which the IC50 against mu opioid receptor (MOR) is over 1 µM. Also, in experiment [1], the “Selectivity (MOR/KOR)” value is reported as “+++ (between 100- to 1000-fold selective)” and the IC50 lay in the range of 0.001 to 0.01 µM.
The compound `CCc1cc(F)c2nc(N3CCN(C(=O)[C@H](CO)N(C)C)C[C@H]3C)c(-c3cc(C)no3)c(C)c2c1` [Compound 168] registered an IC50 against mu opioid receptor (MOR) of over 1 µM. Also, in experiment [1], the “Selectivity (MOR/KOR)” value is listed as “+++ (between 100- to 1000-fold selective)” and the IC50 fell in the range of 0.001 to 0.01 µM.
As to `CCc1cc(F)c2nc(N3CCN(C(=O)C(C)(C)N4CCCC4)C[C@H]3C)c(-c3ccn(C)n3)c(C)c2c1` [Compound 169], at mu opioid receptor (MOR), the IC50 is over 1 µM. In experiment [1], the “Selectivity (MOR/KOR)” value was “++ (between 10- and 100-fold selectivity)”; the half-inhibitory concentration (IC50) was in the range of 0.001 to 0.01 µM.
On to `CCc1cc(F)c2nc(N3CCN(C(=O)[C@@H](C)N(CC)CC)C[C@H]3C)c(-c3ccn(C)n3)c(C)c2c1` [Compound 170], for which the IC50 against mu opioid receptor (MOR) was over 1 µM; in experiment [1], 0.01 to 0.1 µM. The “Selectivity (MOR/KOR)” value in experiment [1] is “+++ (between 100- to 1000-fold selective)”.
In the same order, the values of `CCc1cc(F)c2nc(N3CCN(C(=O)CN(C)C)C[C@H]3C)c(-c3ccn(C)n3)c(C)c2c1` [Compound 171] are over 1 µM, 0.01 to 0.1 µM and “+++ (between 100- to 1000-fold selective)”.

The values above are taken from patent US20260115185A1, “QUINOLINE DERIVATIVES WHICH ACT AS KAPPA-OPIOID RECEPTOR ANTAGONISTS” (The Scripps Research Institute, priority 2023, published 2026).
